From patent US8822486B2, “Spiropiperidine compounds” (Eli Lilly and Company, priority 2009, dated 2014)

How the values were obtained:
PPARγ = target: T1, PPARγ (Homo sapiens, UniProt P37231); experiment: PPARγ reporter functional assay in CV1 cells; assay type: cell-based; conditions: examined up to 10 μM, luciferase reporter, 24 hours
T1 sequence (P37231 1-505): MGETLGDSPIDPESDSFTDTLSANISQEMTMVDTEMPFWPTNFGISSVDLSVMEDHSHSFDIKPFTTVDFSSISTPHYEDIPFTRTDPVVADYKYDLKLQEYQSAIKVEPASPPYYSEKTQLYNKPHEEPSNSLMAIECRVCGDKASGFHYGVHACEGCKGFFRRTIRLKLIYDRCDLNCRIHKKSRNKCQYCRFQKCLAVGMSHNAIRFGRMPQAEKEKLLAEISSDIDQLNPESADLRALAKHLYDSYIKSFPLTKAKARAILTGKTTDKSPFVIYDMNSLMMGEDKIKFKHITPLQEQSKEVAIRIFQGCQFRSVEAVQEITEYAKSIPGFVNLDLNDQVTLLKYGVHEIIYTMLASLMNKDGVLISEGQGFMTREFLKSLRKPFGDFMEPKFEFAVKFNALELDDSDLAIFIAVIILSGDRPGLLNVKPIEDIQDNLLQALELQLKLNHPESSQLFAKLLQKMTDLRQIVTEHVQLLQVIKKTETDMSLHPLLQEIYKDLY
T1 sequence (P19793 1-462 partner): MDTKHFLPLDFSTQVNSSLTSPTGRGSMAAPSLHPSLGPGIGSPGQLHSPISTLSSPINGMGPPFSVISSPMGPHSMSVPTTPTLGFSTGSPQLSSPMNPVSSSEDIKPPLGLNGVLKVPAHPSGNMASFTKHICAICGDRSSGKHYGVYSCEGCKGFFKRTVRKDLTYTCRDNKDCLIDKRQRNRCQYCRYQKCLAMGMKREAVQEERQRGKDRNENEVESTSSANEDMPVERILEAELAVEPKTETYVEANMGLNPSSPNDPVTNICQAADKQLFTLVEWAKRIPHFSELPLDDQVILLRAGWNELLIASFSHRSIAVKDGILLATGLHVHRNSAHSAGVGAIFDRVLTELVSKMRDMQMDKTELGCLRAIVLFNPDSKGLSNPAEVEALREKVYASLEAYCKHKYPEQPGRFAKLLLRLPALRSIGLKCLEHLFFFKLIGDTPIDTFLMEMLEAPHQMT
Excerpt: Gal4 PPARα, Gal4 PPARδ, and PPARγ reporter functional assays are also used to monitor the selectivity of exemplified compounds. CV1 cells, which are derived from the renal tissue of an African green monkey, are transfected with various receptor and reporter plasmids using Fugene. For the Gal4 PPARα and PPARδ assays, a reporter plasmid containing five tandem copies of the yeast transcription protein Gal4 response element, cloned upstream of a firefly luciferase gene driven by the major late promoter of adenovirus, is transfected together with a Simian Virus 40 (SV40) driven plasmid constitutively expressing a hybrid protein containing the Gal4 DNA binding domain (DBD), and either the PPARα or PPARδ ligand binding. For the PPARγ assay, plasmids encoding PPARγ and RXRα, both driven by a cytomegalovirus (CMV) promoter are transfected together with a plasmid containing luciferase reporter cDNA driven by the TK promoter and a receptor response element (2×PPRE). Cells are transfected in T225 cm^2 cell culture flasks in DMEM media with 5% charcoal-stripped FBS. […] After 24 hours incubation with compounds, cells are lysed and luciferase activity is determined as a measure of receptor activation by luminescence. […] The maximum percent stimulation is determined versus maximum stimulation obtained with 10 μM of an appropriate PPAR agonist reference compound. […]

[1] = system: mouse insulinoma cell line Min6; experiment: Glucose Dependent Insulin Secretion (GDIS) assay in Min6 cells; assay type: cell-based; conditions: 1 μM plus 25 mM glucose compared to 25 mM glucose alone; 2 h incubation
Description: Because activation of GPR40 is known to result in insulin secretion which is dependent on high glucose concentrations, two separate assay systems (insulinoma cell line and primary rodent islets) are developed to further characterize compounds that are known to increase intracellular calcium in the GPR40 primary assay discussed above.
GDIS assays are performed using the mouse insulinoma cell line Min6. Min6 cells are maintained in Dulbecco's Modified Eagle's Medium (DMEM) containing non-essential amino acids, 10% FBS, […] 2-mercaptoethanol and 1% penicillin and streptomycin at 37° C. plus 5% CO2 On the day of the experiment, the cells are washed twice with 200 μl of pre-warmed Krebs-ringer buffer without glucose. Addition of 200 μL of pre-warmed Krebs-ringer buffer containing 2.5 mM glucose is used to starve the cells followed by the addition of compounds in the presence of a high concentration of glucose (25 mM). The plate is incubated at 37° C. for 2 hours. At the end of the 2 h incubation, the supernatant is gently transferred into a Millipore filter plate and spun at 200 g (gravitational force) for 3 minutes. Insulin is assayed using a Mercodia Insulin estimation kit.

Male Balb/c mice = experiment: Intraperitoneal Glucose Tolerance Test (IPGTT); assay type: in vivo, mouse; conditions: oral
Description: To examine the ability of exemplified compounds to activate GPR40 in-vivo resulting in anti-diabetic efficacy, i.e. an increase in insulin and reduction in glucose levels, a 4-day intraperitoneal glucose tolerance test (ipGTT) study is completed with each compound tested in the IPGTT.
Male Balb/c (Albino mice) mice (8-9 weeks of age) are single housed and fed with normal rodent chow diet and water ad libitum. Animals are weighed and randomized by body weight and daily body weights are recorded. Upon study initiation, animals are dosed once per day orally for three days using a formulation carrying methylcellulose and tween-80. On the night before the 4-day IPGTT study, animals are fasted overnight in clean cages. On the morning of the IPGTT (Day 4), animals are dosed orally with compound or vehicle alone 60 minutes prior to the IPGTT (glucose 2 g/kg, i.p.). Blood glucose levels are determined from tail bleeds taken at 0, 3, 7, 15, 30, and 60 min after glucose challenge. Plasma is isolated and used to estimate respective insulin levels. The blood glucose excursion profile from t=0 to t=60 min is used to integrate an area under the curve (AUC) for each treatment. Percent lowering in glucose is calculated from the AUC data of the compounds with respect to the AUC of vehicle group. The test compound is orally administered at 0.1, 0.3, 1.0, 3.0, or 10 mg/kg, and a positive control is administered at 10 mg/kg.

[2] = Example 1 at 0.1, 0.3, 1.0 and 3.0 mg/kg, positive control 10 mg/kg

Question: With `CC#C[C@@H](CC(=O)O)c1ccc(OCc2ccc(CN3CCC4(C=Cc5ccccc54)CC3)s2)cc1` [Example 1, (3S)-3-[4-[[5-(Spiro[indene-1,4′-piperidine]-1′-ylmethyl)-2-thienyl]methoxy]phenyl]hex-4-ynoic acid] as the compound, how does the “functional activation of PPARγ” value (PPARγ) read?
Answer: No functional activation

Question: What about the “increase in insulin secretion” value [1] of the same compound?
Answer: two-fold increase

Question: What about the ED50 (Male Balb/c mice; Mus musculus, once per day, 4-day study, glucose 2 g/kg i.p., AUC t=0 to 60 min, read-out: ED50 based on AUCs for glucose lowering) of the same compound?
Answer: 0.21 mg/kg

Question: What about the “glucose levels at the 3 minute time point” value (Male Balb/c mice; Example 1 0.1, 0.3, 1.0, 3.0 or 10 mg/kg, positive control 10 mg/kg) of the same compound?
Answer: No concentration of the compound of Example 1 or the positive control significantly lowered glucose levels

Question: What about the “glucose levels at the 15 minute time point” value (Male Balb/c mice; Example 1 at 0.1, 0.3, 1.0 and 3.0 mg/kg) of the same compound?
Answer: significantly lowered

Question: And the “glucose levels at the 30 minute time point” value (Male Balb/c mice; [2])?
Answer: significantly lowered

Question: And the “glucose levels at the 60 minute time point” value (Male Balb/c mice; [2])?
Answer: significantly lowered

Question: What about the “glucose levels at the 7 minute time point” value (Male Balb/c mice; Example 1 at 0.3, 1.0, 3.0 and 10 mg/kg, positive control 10 mg/kg) of the same compound?
Answer: significantly lowered

Question: And the insulin levels (Male Balb/c mice; at the 3.0 and 10.0 mg/kg dose)?
Answer: significantly elevated
